Our source for the IC50 values is US11634396B2 (priority 2021, dated 2023).

Some results are limits rather than exact numbers.

human mOR, sequence (P35372 whole entry): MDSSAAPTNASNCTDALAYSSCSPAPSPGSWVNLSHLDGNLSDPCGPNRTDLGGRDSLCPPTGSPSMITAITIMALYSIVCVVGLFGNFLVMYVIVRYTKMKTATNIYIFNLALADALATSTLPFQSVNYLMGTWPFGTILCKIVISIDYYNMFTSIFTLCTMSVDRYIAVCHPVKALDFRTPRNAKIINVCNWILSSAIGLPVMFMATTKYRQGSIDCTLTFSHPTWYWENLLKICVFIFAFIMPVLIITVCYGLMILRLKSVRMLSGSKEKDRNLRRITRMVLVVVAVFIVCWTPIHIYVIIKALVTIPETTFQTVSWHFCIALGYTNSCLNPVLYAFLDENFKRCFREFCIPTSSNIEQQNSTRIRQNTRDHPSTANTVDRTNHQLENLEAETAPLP

One test has as its target human mOR (Homo sapiens (Human), UniProt P35372). Description: cell-based.
Details: not given
As a reminder, the IC50 is the concentration at which inhibition is half-maximal. Take `CNC(=O)c1ccc(C[C@@H](CNC(=O)C[C@H](c2ccc(F)cc2)C2(C(F)(F)F)CC2)N(C)C)c(C)c1` [Compound 128, 4-((S)-2-(dimethylamino)-3-((R)-3-(4-fluorophenyl)-3-(1-(trifluoromethyl)cyclopropyl)propanamido)propyl)-N,3-dimethylbenzamide]: the IC50 is less than 300 nM.

`CNC(=O)c1ccc(C[C@@H](CNC(=O)C[C@H](c2cccnc2)C(C)(C)C)N(C)C)c(C)c1` [Compound 129, 4-((S)-3-((S)-4,4-dimethyl-3-(pyridin-3-yl)pentanamido)-2-(dimethylamino)propyl)-N,3-dimethylbenzamide]: the IC50 was less than 300 nM.

Take `CNC(=O)c1ccc(C[C@@H](CNC(=O)C[C@H](c2cccnc2)C2(C(F)(F)F)CC2)N(C)C)c(C)c1` [Compound 131, 4-((S)-2-(dimethylamino)-3-((R)-3-(pyridin-3-yl)-3-(1-(trifluoromethyl)cyclopropyl)propanamido)propyl)-N,3-dimethylbenzamide]: the IC50 is less than 300 nM.

As to `CNC(=O)c1ccc(C[C@@H](CNC(=O)C[C@H](c2ccc(C)nc2)C2(C(F)(F)F)CC2)N(C)C)c(C)c1` [Compound 132, 4-((S)-2-(dimethylamino)-3-((R)-3-(6-methylpyridin-3-yl)-3-(1-(trifluoromethyl)cyclopropyl)propanamido)propyl)-N,3-dimethylbenzamide], the IC50 was less than 300 nM.

For `CNC(=O)c1ccc(C[C@@H](CNC(=O)C[C@@H](CC2CC2)c2cccnc2)N(C)C)c(C)c1` [Compound 133, 4-((S)-3-((R)-4-cyclopropyl-3-(pyridin-3-yl)butanamido)-2-(dimethylamino)propyl)-N,3-dimethylbenzamide], the IC50 is more than 3000 nM.

Regarding `CNC(=O)c1ccc(C[C@@H](CNC(=O)CC(c2ccncc2)C2(C(F)(F)F)CC2)N(C)C)c(C)c1` (stereo partly drawn) [Compound 134, 4-((2S)-2-(dimethylamino)-3-(3-(pyridin-4-yl)-3-(1-(trifluoromethyl)cyclopropyl)propanamido)propyl)-N,3-dimethylbenzamide], the IC50 is less than 300 nM.

As for `CNC(=O)c1ccc(C[C@@H](CNC(=O)C[C@H](CC2CC2)c2ccccn2)N(C)C)c(C)c1` [Compound 139, 4-((S)-3-((S)-4-cyclopropyl-3-(pyridin-2-yl)butanamido)-2-(dimethylamino)propyl)-N,3-dimethylbenzamide], the IC50 was more than 3000 nM.

As to `CNC(=O)c1ccc(C[C@@H](CNC(=O)C[C@@H](CC(C)C)c2ccccn2)N(C)C)c(C)c1` [Compound 140, 4-((S)-2-(dimethylamino)-3-((R)-5-methyl-3-(pyridin-2-yl)hexanamido)propyl)-N,3-dimethylbenzamide], the IC50 is more than 3000 nM.

`CNC(=O)c1cc(C)c(C[C@@H](CNC(=O)C[C@H](c2ccccc2)C2(C(F)(F)F)CC2)N(C)C)cc1F` [Compound 144, 4-((S)-2-(dimethylamino)-3-((R)-3-phenyl-3-(1-(trifluoromethyl)cyclopropyl)propanamido)propyl)-2-fluoro-N,5-dimethylbenzamide]: the IC50 was more than 3000 nM.

As to `CNC(=O)c1ccc(C[C@@H](CNC(=O)C[C@@H](c2cncc(F)c2)C(C)(C)C)N(C)C)cc1F` [Compound 151, 4-((S)-2-(dimethylamino)-3-((R)-3-(5-fluoropyridin-3-yl)-4,4-dimethylpentanamido)propyl)-2-fluoro-N-methylbenzamide], the IC50 is 300 to 3000 nM.

Turning to `CNC(=O)c1ccc(C[C@@H](CNC(=O)C[C@H](c2cnc(C)nc2)C2(C(F)(F)F)CC2)N(C)C)cc1F` [Compound 152, 4-((S)-2-(dimethylamino)-3-((R)-3-(2-methylpyrimidin-5-yl)-3-(1-(trifluoromethyl)cyclopropyl)propanamido)propyl)-2-fluoro-N-methylbenzamide], the IC50 is more than 3000 nM.

Turning to `CNC(=O)c1ccc(C[C@@H](CNC(=O)C[C@@H](c2ccccn2)C2(C(F)(F)F)CC2)N(C)C)cc1F` [Compound 153, 4-((S)-2-(dimethylamino)-3-((R)-3-(pyridin-2-yl)-3-(1-(trifluoromethyl)cyclopropyl)propanamido)propyl)-2-fluoro-N-methylbenzamide], the IC50 is more than 3000 nM.

Turning to `CNC(=O)c1ccc(C[C@@H](CNC(=O)C[C@@H](c2ccccc2)C2(C(F)(F)F)CC2)N(C)C)cc1F` [Compound 154, 4-((S)-2-(dimethylamino)-3-((S)-3-phenyl-3-(1-(trifluoromethyl)cyclopropyl)propanamido)propyl)-2-fluoro-N-methylbenzamide], the IC50 is less than 300 nM.

Consider `CCN(CC)[C@H](CNC(=O)C[C@@H](c1ccccc1)C(C)(C)C)Cc1ccc(C(=O)NC)c(F)c1` [Compound 166, 4-((S)-2-(diethylamino)-3-((R)-4,4-dimethyl-3-phenylpentanamido)propyl)-2-fluoro-N-methylbenzamide], for which the IC50 is less than 300 nM.

Regarding `Cc1ncc([C@@H](CC(=O)NC[C@H](Cc2ccc3[nH]c(=O)oc3c2C)N(C)C)C2(C(F)(F)F)CC2)cn1` [Compound 169, (R)-N-((S)-2-(dimethylamino)-3-(7-methyl-2-oxo-2,3-dihydrobenzo[d]oxazol-6-yl)propyl)-3-(2-methylpyrimidin-5-yl)-3-(1-(trifluoromethyl)cyclopropyl)propanamide], the IC50 is more than 3000 nM.

`Cc1c(C[C@@H](CNC(=O)C[C@H](c2ccncc2)C2(C(F)(F)F)CC2)N(C)C)ccc2[nH]c(=O)oc12` [Compound 170, (R)-N-((S)-2-(dimethylamino)-3-(7-methyl-2-oxo-2,3-dihydrobenzo[d]oxazol-6-yl)propyl)-3-(pyridin-4-yl)-3-(1-(trifluoromethyl)cyclopropyl)propanamide]: the IC50 is less than 300 nM.

Turning to `Cc1c(C[C@@H](CNC(=O)C[C@@H](CC2CC2)c2cccnc2)N(C)C)ccc2c1CC(=O)N2` [Compound 179, (R)-4-cyclopropyl-N-((S)-2-(dimethylamino)-3-(4-methyl-2-oxoindolin-5-yl)propyl)-3-(pyridin-3-yl)butanamide], the IC50 was less than 300 nM.

With `Cc1c(C[C@@H](CNC(=O)C[C@H](c2cccnc2)C2(C(F)(F)F)CC2)N(C)C)ccc2c1CC(=O)N2` [Compound 180, (R)-N-((S)-2-(dimethylamino)-3-(4-methyl-2-oxoindolin-5-yl)propyl)-3-(pyridin-3-yl)-3-(1-(trifluoromethyl)cyclopropyl)propanamide], the IC50 was less than 300 nM.

In the case of `CN(C)[C@H](CNC(=O)C[C@H](c1ccccc1)C1(C(F)(F)F)CC1)Cc1ccc2c(c1)CC(=O)N2` [Compound 189, (R)-N-((S)-2-(dimethylamino)-3-(2-oxoindolin-5-yl)propyl)-3-phenyl-3-(1-(trifluoromethyl)cyclopropyl)propanamide], the IC50 was less than 300 nM.

As to `CN(C)[C@H](CNC(=O)C[C@H](c1cccnc1)C1(C(F)(F)F)CC1)Cc1ccc2[nH]ncc2c1Cl` [Compound 192, (R)-N-((S)-3-(4-chloro-1H-indazol-5-yl)-2-(dimethylamino)propyl)-3-(pyridin-3-yl)-3-(1-(trifluoromethyl)cyclopropyl)propanamide], the IC50 is less than 300 nM.

Take `CN(C)[C@H](CNC(=O)C[C@H](c1cccnc1)C1(C(F)(F)F)CC1)Cc1ccc2[nH]ncc2c1F` [Compound 195, (R)-N-((S)-2-(dimethylamino)-3-(4-fluoro-1H-indazol-5-yl)propyl)-3-(pyridin-3-yl)-3-(1-(trifluoromethyl)cyclopropyl)propanamide]: the IC50 was less than 300 nM.

As to `Cc1c(C[C@@H](CNC(=O)C[C@H](c2ccncc2)C2(C(F)(F)F)CC2)N(C)C)ccc2[nH]ncc12` [Compound 196, (R)-N-((S)-2-(dimethylamino)-3-(4-methyl-1H-indazol-5-yl)propyl)-3-(pyridin-4-yl)-3-(1-(trifluoromethyl)cyclopropyl)propanamide], the IC50 is less than 300 nM.

As to `Cc1c(C[C@@H](CNC(=O)C[C@H](c2cccnc2)C2(C(F)(F)F)CC2)N(C)C)ccc2[nH]ncc12` [Compound 197, (R)-N-((S)-2-(dimethylamino)-3-(4-methyl-1H-indazol-5-yl)propyl)-3-(pyridin-3-yl)-3-(1-(trifluoromethyl)cyclopropyl)propanamide], the IC50 is less than 300 nM.

Still in this test, the particulars now being: CHO Tag-lite human mOR stable cell line; forskolin 4 μM and DAMGO at EC90; read-out: mOR cAMP Antagonist Assay IC50.
Turning to `CN(C)[C@H](CNC(=O)C[C@@H](c1cccnc1)C1(C(F)(F)F)CC1)Cc1ccc2[nH]c(=O)oc2c1` [Compound 176, (S)-N-((S)-2-(dimethylamino)-3-(2-oxo-2,3-dihydrobenzo[d]oxazol-6-yl)propyl)-3-(pyridin-3-yl)-3-(1-(trifluoromethyl)cyclopropyl)propanamide], the IC50 was less than 300 nM.

Turning to `CN(C)[C@H](CNC(=O)CC(c1ncccn1)C1(C(F)(F)F)CC1)Cc1ccc2c(c1)CC(=O)N2` (stereo partly drawn) [Compound 188, N-((S)-2-(dimethylamino)-3-(2-oxoindolin-5-yl)propyl)-3-(pyrimidin-2-yl)-3-(1-(trifluoromethyl)cyclopropyl)propenamide], the IC50 is 300 to 3000 nM.

As for `CN(C)[C@H](CNC(=O)C[C@@H](c1ccccc1)C1(C(F)(F)F)CC1)Cc1ccc2[nH]ncc2c1` [Compound 190, (S)-N-((S)-2-(dimethylamino)-3-(1H-indazol-5-yl)propyl)-3-phenyl-3-(1-(trifluoromethyl)cyclopropyl)propanamide], the IC50 lay in the range of 300 to 3000 nM.

In the case of `CN(C)[C@H](CNC(=O)C[C@H](c1ccncc1)C1(C(F)(F)F)CC1)Cc1ccc2[nH]ncc2c1Cl` [Compound 191, (R)-N-((S)-3-(4-chloro-1H-indazol-5-yl)-2-(dimethylamino)propyl)-3-(pyridin-4-yl)-3-(1-(trifluoromethyl)cyclopropyl)propanamide], the IC50 is less than 300 nM.

The same test, now with this note: read-out: mOR cAMP Antagonist Assay IC50.
`CNC(=O)c1ccc(C[C@@H](CNC(=O)C[C@H](c2cnc(C)nc2)C2(C(F)(F)F)CC2)N(C)C)c(C)c1` [Compound 135, 4-((S)-2-(dimethylamino)-3-((R)-3-(2-methylpyrimidin-5-yl)-3-(1-(trifluoromethyl)cyclopropyl)propanamido)propyl)-N,3-dimethylbenzamide]: the concentration for half-maximal inhibition (IC50) is more than 3000 nM.
